Patent US6951647B2, “T cell binding ligand peptides and method of inducing a cellular immune response” (Cel-Sci Corporation, priority 2001, dated 2005)
Several values for one entry are separate records, joined by “and”; a condition that tells them apart may be missing. Equal entries are not always repeated.

Key:
[1] = tested on: modified HGP-30 (mH, SEQ ID NO:6); assay: Isotype analysis (ELISA) of anti-mH antibody in sera of immunized mice; assay type: in vivo; design: IgG1 / IgG2a / IgG2b / IgG3: unit not given here; conditions: for IgG1 / IgG2a / IgG2b / IgG3: ELISA signal, day 42 test bleeding; for Ig1, serial dilution 1:200 / Ig1, serial dilution 1:800 / Ig1, serial dilution 1:3200 / Ig1, serial dilution 1:12800 / Ig1, serial dilution 1:51200 / Ig1, serial dilution 1:204800 / Ig2a, serial dilution 1:200 / Ig2a, serial dilution 1:800 / Ig2a, serial dilution 1:3200 / Ig2a, serial dilution 1:12800 / Ig2a, serial dilution 1:51200 / Ig2a, serial dilution 1:204800 / Ig2b, serial dilution 1:200 / Ig2b, serial dilution 1:800 / Ig2b, serial dilution 1:3200 / Ig2b, serial dilution 1:12800 / Ig2b, serial dilution 1:51200 / Ig2b, serial dilution 1:204800 / Ig3, serial dilution 1:200 / Ig3, serial dilution 1:800 / Ig3, serial dilution 1:3200 / Ig3, serial dilution 1:12800 / Ig3, serial dilution 1:51200 / Ig3, serial dilution 1:204800: day 28 pool
Method in brief: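 Mice (5-10 per group) immunized days 0 and 14 with LEAPS constructs, 25 μg/dose emulsified 1:1 in ISA-51 or MPL S/E adjuvant. Individual and pooled sera from selected bleeds (days 28 to 77) assayed by ELISA for anti-mH total IgG, IgG1, IgG2a and IgG3.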

[2] = tested on: C Clade; assay: ELISA cross clade recognition by sera of immunized mice, C Clade; assay type: in vivo; conditions: for ELISA test antigen C Clade: day 42 test bleeding
[3] = tested on: D Clade; assay: ELISA cross clade recognition by sera of immunized mice, D Clade; assay type: in vivo; conditions: for ELISA test antigen D Clade: day 42 test bleeding, Group Average
[4] = tested on: E Clade; assay: ELISA cross clade recognition by sera of immunized mice, E Clade; assay type: in vivo; conditions: for ELISA test antigen E Clade: day 42 test bleeding, Group Average
[5] = tested on: modified HGP-30; assay: ELISA for antibody after antisera depletion of CD4 or CD8 cells (FIG. 2); assay type: in vivo, Mice; conditions: pretreatment with anti-CD4, day 28, p=0.002 (FIG. 2)
Excerpt: Select immunoglobulin preparations were obtained from Dr. Stephen Hoffmann, Malaria Program, U.S. Navy. […] This allows one to determine some parts of the nature of various cellular (e.g., T-cell) involvement in the early stage of immune system response with the LEAPS peptide-constructs. It is recognized, however, that this is only a temporary event since new cells are continuously being developed from stem cells and the animals become resistant to the reagents.
The animals are pretreated with the antisera as indicated for 5 days before the initial immunization with peptide-construct having SEQ ID NO:37 or SEQ ID NO:39 on […]. No pretreatment is done before the booster immunization on day 14 or DTH on day 26-28. The mice are then inoculated with the test antigen or saline (control) on day 26 in the left and right ears, respectively, and the DTH response is measured on day 28. The difference between the values for the test and saline control ears is calculated for each group of five animals along with the standard error of the mean (sem) and the results are plotted (see FIG. 1). Also shown in FIG. 1 are values for the untreated animals and animals immunized on day 14 only.
This example is similar to Example 2 but using a more sensitive ELISA test for antibody type. […] This was not the case, however, with pretreatment using anti-CD8 or normal rat IgG. […]

[6] = tested on: D Clade; assay: ELISA cross clade recognition by sera of immunized mice, D Clade; assay type: in vivo; conditions: day 42 test bleeding, individual mouse
[7] = tested on: E Clade; assay: ELISA cross clade recognition by sera of immunized mice, E Clade; assay type: in vivo; conditions: day 42 test bleeding, individual mouse
[8] = tested on: Peptide G; assay: Specificity analysis for the TCBL carrier, ELISA plates coated with Peptide G; assay type: in vivo, Mice; conditions: individual animal
[9] = group without '(with MPL)' (ISA51)
[10] = day 63 test bleeding, sera 1:200, individual mouse

## DGQ EEK AGV VST GLI GGG ATL YSV HQR IDV KDT KEA LEK IEE EQN KS (DGQEEKAGVVSTGLIGGGYLSGANLNL) [SEQ ID NO: 57, Peptide G′ linked by GGG spacer to modified HGP-30 (mH)]
[1]; group Average
  IgG1: 2.667
  IgG2a: 1.427
  IgG2b: 1.695
  IgG3: 1.562
[1]; individual mouse
  IgG1: 2.577 and 2.623 and 2.588 and 2.601 and 2.757 and 2.886 and 2.768 and 2.574 and 2.628 and 2.671
  IgG2a: 1.399 and 1.302 and 1.630 and 0.467 and 1.249 and 2.275 and 0.998 and 1.693 (2×) and 1.566
  IgG2b: 2.050 and 1.588 and 1.735 and 0.534 and 1.261 and 2.717 and 1.656 and 2.009 and 1.613 and 1.785
  IgG3: 1.853 and 1.268 and 1.856 and 1.229 and 2.186 and 1.921 and 1.276 and 2.181 and 0.672 and 1.183
[1]; [9]
  Ig1, serial dilution 1:200: 3.006
  Ig1, serial dilution 1:800: 2.441
  Ig1, serial dilution 1:3200: 1.755
  Ig1, serial dilution 1:12800: 1.069
  Ig1, serial dilution 1:51200: 0.367
  Ig1, serial dilution 1:204800: 0.114
  Ig2a, serial dilution 1:200: 0.729
  Ig2a, serial dilution 1:800: 0.218
  Ig2a, serial dilution 1:3200: 0.068
  Ig2a, serial dilution 1:12800: 0.025
  Ig2a, serial dilution 1:51200: 0.015
  Ig2a, serial dilution 1:204800: 0.008
  Ig2b, serial dilution 1:200: 1.420
  Ig2b, serial dilution 1:800: 0.505
  Ig2b, serial dilution 1:3200: 0.134
  Ig2b, serial dilution 1:12800: 0.054
  Ig2b, serial dilution 1:51200: 0.014
  Ig2b, serial dilution 1:204800: 0.000
  Ig3, serial dilution 1:200: 1.132
  Ig3, serial dilution 1:800: 0.358
  Ig3, serial dilution 1:3200: 0.092
  Ig3, serial dilution 1:12800: 0.020
  Ig3, serial dilution 1:51200: 0.004
  Ig3, serial dilution 1:204800: 0.000
[1]; with MPL
  Ig1, serial dilution 1:200: 2.642
  Ig1, serial dilution 1:800: 1.638
  Ig1, serial dilution 1:3200: 0.652
  Ig1, serial dilution 1:12800: 0.279
  Ig1, serial dilution 1:51200: 0.091
  Ig1, serial dilution 1:204800: 0.014
  Ig2a, serial dilution 1:200: 1.961
  Ig2a, serial dilution 1:800: 0.899
  Ig2a, serial dilution 1:3200: 0.263
  Ig2a, serial dilution 1:12800: 0.081
  Ig2a, serial dilution 1:51200: 0.028
  Ig2a, serial dilution 1:204800: 0.005
  Ig2b, serial dilution 1:200: 1.872
  Ig2b, serial dilution 1:800: 0.881
  Ig2b, serial dilution 1:3200: 0.253
  Ig2b, serial dilution 1:12800: 0.104
  Ig2b, serial dilution 1:51200: 0.011
  Ig2b, serial dilution 1:204800: 0.006
  Ig3, serial dilution 1:200: 1.965
  Ig3, serial dilution 1:800: 0.805
  Ig3, serial dilution 1:3200: 0.215
  Ig3, serial dilution 1:12800: 0.045
  Ig3, serial dilution 1:51200: 0.005
  Ig3, serial dilution 1:204800: 0.000
[1]; day 42 test bleedings, Table 1, in words
  Levels of TH1 preferred isotypes relative to TH2 isotype (IgG1): significantly higher signals
[2]; group (A), Group Average
  ELISA test antigen C Clade: 0.712
[2]; group (A), individual mouse
  ELISA test antigen C Clade: 0.616 and 0.000 and 0.518 and 0.920 and 0.767 and 1.454
[2]; group (B), Group Average
  ELISA test antigen C Clade: 1.559
[2]; group (B), individual mouse
  ELISA test antigen C Clade: 2.575 and 0.837 and 1.711 and 2.254 and 0.911 and 1.070
[2]; [10]
  ELISA signal on C Clade: 1.454 and 0.127 and 0.427 and 0.073 and 1.592 and 0.651 and 1.365 and 1.139 and 0.008 and 1.191
[3]; group (A)
  ELISA test antigen D Clade: 0.030
[3]; group (B)
  ELISA test antigen D Clade: 0.755
[3]; [10]
  ELISA signal on D Clade: 1.527 and 0.438 and 0.408 and 0.125 and 1.471 and 0.772 and 1.328 and 1.370 and 0.000 and 0.374
[4]; group (A)
  ELISA test antigen E Clade: 0.035
[4]; group (B)
  ELISA test antigen E Clade: 0.094
[4]; [10]
  ELISA signal on E Clade: 0.933 and 0.030 and 0.113 and 0.041 and 0.000 (2×) and 0.029 and 0.068 and 0.006 and 0.271
[5]
  Antibody detection by ELISA after antisera depletion: completely eliminated any antibodies from being detected
[6]; group (A)
  ELISA test antigen D Clade: 0.052 and 0.000 (2×) and 0.010 and 0.003 and 0.114
[6]; group (B)
  ELISA test antigen D Clade: 0.087 and 0.095 and 0.185 and 1.799 and 1.727 and 0.637
[7]; group (A)
  ELISA test antigen E Clade: 0.092 and 0.000 (3×) and 0.018 and 0.101
[7]; group (B)
  ELISA test antigen E Clade: 0.000 (2×) and 0.054 and 0.358 and 0.113 and 0.037
[8]; day 42, first set of groups (animals 4637-4648, 4674-4678)
  A 490 1:200 dilution on plates coated with Peptide G: 0.083 A 490 and 0.054 A 490 and 0.097 A 490 and 0.038 A 490 and 0.087 A 490 and 0.121 A 490
[8]; day 42, second set of groups (animals 4662-4673, 4679-4683)
  A 490 1:200 dilution on plates coated with Peptide G: 0.091 A 490 and 0.024 A 490 and 0.006 A 490 and 0.015 A 490 and 0.126 A 490 and 0.113 A 490
